US6828317B2, “Antimicrobial thiadiazinone derivatives and their application for treatment of bacterial infections” (Pharmacia & Upjohn Company, priority 2002, dated 2004)
In brackets after ≈: the same amount, converted by molar mass.

Columns and labels:
[1] = tested on: S. pneumoniae UC9912; assay: MIC by agar dilution, S. pneumoniae UC9912; type: cell-based; details: Streptococcus pneumoniae, Mueller Hinton agar, overnight at 35° C.
Source text: (§1) The in vitro activity of compounds of the subject invention may be assessed by standard testing procedures such as the determination of minimum inhibitory concentration (MIC) by agar dilution as described in “Approved Standard. Methods for Dilution Antimicrobial Susceptibility Tests for Bacteria that Grow Aerobically,” 3rd ed., published 1993 by the National Committee for Clinical Laboratory standards, Villanova, Pa., USA. The in vitro MICs of test compounds may be determined by a standard agar dilution method. A stock drug solution of each analog is prepared in a preferred solvent, usually DMSO:H2O (1:3). Serial 2-fold dilutions of each sample are made using 1.0 ml aliquots of sterile distilled water. To each 1.0 ml aliquot of drug is added 9 ml of molten Mueller Hinton agar medium. The drug-supplemented agar is mixed, poured into 15×100 mm petri dishes, and allowed to solidify and dry prior to inoculation. Vials of each of the test microorganisms are maintained frozen in the vapor phase of a liquid nitrogen freezer. Test cultures are grown overnight at 35° C. on the medium appropriate for the microorganism. Colonies are harvested with a sterile swab, and cell suspensions are prepared in Trypticase Soy broth (TSB) to equal the turbidity of a 0.5 McFarland standard. A 1:20 dilution of each suspension is made in TSB. The plates containing the drug supplemented agar are inoculated with a 0.001 ml drop of the cell suspension using a Steers replicator, yielding approximately 10^4 to 10^5 cells per spot. The plates are incubated overnight at 35° C. Following incubation the Minimum Inhibitory Concentration (MIC μg/ml), the lowest concentration of drug that inhibits visible growth of the microorganism, is read and recorded.

[2] = tested on: S. aureus UC9213; assay: MIC by agar dilution, S. aureus UC9213; type: cell-based; details: Staphylococcus aureus, Mueller Hinton agar, overnight at 35° C.
Source text: as §1

[3] = tested on: H. influenzae 30063; assay: MIC by agar dilution, H. influenzae 30063; type: cell-based; details: Haemophilus influenzae, Mueller Hinton agar, overnight at 35° C.
Source text: as §1

SMILES | MIC [1] [µg/mL] | MIC [2] [µg/mL] | melting point [°C] | MIC [3] [µg/mL]
CCC(=O)NC[C@H]1CN(c2ccc(C3=NNC(=O)CS3)c(F)c2)C(=O)O1 [Example 15, N-{3-[3-Fluoro-4-(5-oxo-5,6-dihydro-4H-[1,3,4]thiadiazin-2-yl)-phenyl]-2-oxo-oxazolidin-5(S)-ylmethyl}-propionamide] | < 0.06 | 1 (≈ 2.63 µM) | 192 to 193 | 2 (≈ 5.26 µM)
CCC1SC(c2ccc(N3C[C@H](CNC(C)=O)OC3=O)cc2F)=NNC1=O (stereo partly drawn) [Example 5, N-{3-[3-Fluoro-4-(6-ethyl-5-oxo-5,6-dihydro-4H-[1,3,4]thiadiazin-2-yl)-phenyl]-2-oxo-oxazolidin-5(S)-ylmethyl}-acetamide] | 2 (≈ 5.07 µM) | 4 (≈ 10.1 µM) | 177 to 179 | 32 (≈ 81.1 µM)
O=C(CO)NC[C@H]1CN(c2ccc(C3=NNC(=O)CS3)c(F)c2)C(=O)O1 [Example 17, N-{3-[3-Fluoro-4-(5-oxo-5,6-dihydro-4H-[1,3,4]thiadiazin-2-yl)-phenyl]-2-oxo-oxazolidin-5(S)-ylmethyl}-2-hydroxyacetamide] | 0.125 (≈ 0.327 µM) | 2 (≈ 5.23 µM) | 157 to 158 | 4 (≈ 10.5 µM)
CC(=O)NC[C@H]1CN(c2ccc(C3=NNC(=O)CS3)c(F)c2)C(=O)O1 [Example 1, N-{3-[3-Fluoro-4-(5-oxo-5,6-dihydro-4H-[1,3,4]thiadiazin-2-yl)-phenyl]-2-oxo-oxazolidin-5(S)-ylmethyl}-acetamide] | < 0.06 | 0.5 (≈ 1.36 µM) | 206 to 209 | 1 (≈ 2.73 µM)
CC(=O)NC[C@H]1CN(c2ccc(C3=NNC(=O)C(F)S3)c(F)c2)C(=O)O1 (stereo partly drawn) [Example 10, N-{3-[3-Fluoro-4-(6-fluoro-5-oxo-5,6-dihydro-4H-[1,3,4]thiadiazin-2-yl)-phenyl]-2-oxo-oxazolidin-5(S)-ylmethyl}-acetamide] |  |  | 218 to 220 | 
CC(=O)NC[C@H]1CN(c2ccc(C3=NNC(=O)[C@@H](C)S3)c(F)c2)C(=O)O1 [Example 3, N-{3-[3-Fluoro-4-(6(R)-methyl-5-oxo-5,6-dihydro-4H-[1,3,4]thiadiazin-2-yl)-phenyl]-2-oxo-oxazolidin-5(S)-ylmethyl}-acetamide] | 0.25 (≈ 0.657 µM) | 1 (≈ 2.63 µM) | 205 to 206 | 4 (≈ 10.5 µM)
COC(=O)NC[C@H]1CN(c2ccc(C3=NNC(=O)CS3)c(F)c2)C(=O)O1 [Example 19] | 0.125 (≈ 0.327 µM) | 1 (≈ 2.62 µM) |  | 4 (≈ 10.5 µM)
CC(=O)NC[C@H]1CN(c2ccc(C3=NNC(=O)C(C)(C)S3)c(F)c2)C(=O)O1 [Example 4, N-{3-[4-(6,6-Dimethyl-5-oxo-5,6-dihydro-4H-[1,3,4]thiadiazin-2-yl)-3-fluorophenyl]-2-oxo-oxazolidin-5(S)-ylmethyl}-acetamide] | 0.25 (≈ 0.634 µM) | 2 (≈ 5.07 µM) | 179 to 181 | 16 (≈ 40.6 µM)
CC(=O)NC[C@H]1CN(c2ccc(C3=NNC(=O)C(C(C)C)S3)c(F)c2)C(=O)O1 (stereo partly drawn) [Example 7, N-{3-[3-Fluoro-4-(6-isopropyl-5-oxo-5,6-dihydro-4H-[1,3,4]thiadiazin-2-yl)-phenyl]-2-oxo-oxazolidin-5(S)-ylmethyl}-acetamide] |  |  | 201 to 203 | 
CC(=O)NC[C@H]1CN(c2ccc(C3=NNC(=O)C(c4ccccc4)S3)c(F)c2)C(=O)O1 (stereo partly drawn) [Example 9, N-{3-[3-Fluoro-4-(5-oxo-6-phenyl-5,6-dihydro-4H-[1,3,4]thiadiazin-2-yl)-phenyl]-2-oxo-oxazolidin-5(S)-ylmethyl}-acetamide] | 0.5 (≈ 1.13 µM) | 4 (≈ 9.04 µM) | 122 to 123 | 16 (≈ 36.2 µM)
NC(=O)NC[C@H]1CN(c2ccc(C3=NNC(=O)CS3)c(F)c2)C(=O)O1 [Example 18, {3-[3-Fluoro-4-(5-oxo-5,6-dihydro-4H-[1,3,4]thiadiazin-2-yl)-phenyl]-2-oxo-oxazolidin-5(S)-ylmethyl}-urea] | 0.125 (≈ 0.34 µM) | 2 (≈ 5.44 µM) | 235 to 236 | 4 (≈ 10.9 µM)

Other lines, results leading:

MIC [1] [µg/mL] | MIC [2] [µg/mL] | melting point [°C] | MIC [3] [µg/mL] | SMILES
< 0.06 | 0.125 (≈ 0.327 µM) | 182 to 183 | 0.5 (≈ 1.31 µM) | CC(=S)NC[C@H]1CN(c2ccc(C3=NNC(=O)CS3)c(F)c2)C(=O)O1 [Example 25, N-{3-[3-Fluoro-4-(5-oxo-5,6-dihydro-4H-[1,3,4]thiadiazin-2-yl)-phenyl]-2-oxo-oxazolidin-5(S)-ylmethyl}-thioacetamide]
0.5 (≈ 1.22 µM) | 4 (≈ 9.79 µM) | 176 to 178 | 8 (≈ 19.6 µM) | CC(=O)CC(=O)NC[C@H]1CN(c2ccc(C3=NNC(=O)CS3)c(F)c2)C(=O)O1 [Example 21, N-{3-[3-Fluoro-4-(5-oxo-5,6-dihydro-4H-[1,3,4]thiadiazin-2-yl)-phenyl]-2-oxo-oxazolidin-5(S)-ylmethyl}-3-oxo-butyramide]
0.06 (≈ 0.117 µM) | 1 (≈ 1.95 µM) |  | > 64 | CO/N=C/c1ccc(/C=C/C(=O)NC[C@H]2CN(c3ccc(C4=NNC(=O)CS4)c(F)c3)C(=O)O2)cc1 [Example 24, N-{3-[3-Fluoro-4-(5-oxo-5,6-dihydro-4H-[1,3,4]thiadiazin-2-yl)-phenyl]-2-oxo-oxazolidin-5(S)-ylmethyl}-3-[4-(methoxyimino-methyl)-phenyl]-acrylamide]
< 0.06 | 0.25 (≈ 0.627 µM) | 158 to 161 | 1 (≈ 2.51 µM) | CC(=S)NC[C@H]1CN(c2ccc(C3=NNC(=S)CS3)c(F)c2)C(=O)O1 [Example 26, N-{3-[3-Fluoro-4-(5-thioxo-5,6-dihydro-4H-[1,3,4]thiadiazin-2-yl)-phenyl]-2-oxo-oxazolidin-5(S)-ylmethyl}-thioacetamide]
 |  | 157 to 158 |  | COC(=O)CN1N=C(c2ccc(N3C[C@H](CNC(C)=O)OC3=O)cc2F)SCC1=O [Example 33]
0.25 (≈ 0.768 µM) | 0.125 (≈ 0.384 µM) | 224 to 227 | 1 (≈ 3.07 µM) | O=C1CSC(c2ccc(N3C[C@H](CO)OC3=O)cc2F)=NN1 [Example 34]
 |  | 174 to 177 |  | CC(=O)NC[C@H]1CN(c2ccc(C3=NNC(=O)C(OC(C)=O)S3)c(F)c2)C(=O)O1 (stereo partly drawn) [Example 31, Acetic acid 2-{4-[5(S)-(acetylaminomethyl)-2-oxo-oxazolidin-3-yl]-2-fluorophenyl}-5-oxo-5,6-dihydro-4H-[1,3,4]thiadiazin-6-yl ester]
0.5 (≈ 1.31 µM) | 2 (≈ 5.26 µM) | 179 to 180 | 16 (≈ 42.1 µM) | CC(=O)NC[C@H]1CN(c2ccc(C3=NN(C)C(=O)CS3)c(F)c2)C(=O)O1 [Example 32, N-{3-[3-Fluoro-4-(4-methyl-5-oxo-5,6-dihydro-[1,3,4]thiadiazin-2-yl)-phenyl]-2-oxo-oxazolidin-5(S)-ylmethyl}-acetamide]
 |  | 134 to 136 |  | CC(C)(C)OC(=O)NC[C@H]1CN(c2ccc(C3=NNC(=S)CS3)c(F)c2)C(=O)O1 [Example 28, N-{3-[3-Fluoro-4-(5-thioxo-5,6-dihydro-4H-[1,3,4]thiadiazin-2-yl)-phenyl]-2-oxo-oxazolidin-5(S)-ylmethyl}-carbamic acid tert-butyl ester]
2 (≈ 4.71 µM) | 2 (≈ 4.71 µM) | 167 to 168 | 64 (≈ 151 µM) | CC(C)(C)OC(=O)NC[C@H]1CN(c2ccc(C3=NNC(=O)CS3)c(F)c2)C(=O)O1 [Example 20, N-{3-[3-Fluoro-4-(5-oxo-5,6-dihydro-4H-[1,3,4]thiadiazin-2-yl)-phenyl]-2-oxo-oxazolidin-5(S)-ylmethyl}-carbamic acid tert-butyl ester]
